Measured values from patent EP0080940B1, “Derivatives of 2-phenyl-morpholine and medical compositions” (LABORATOIRE L. LAFON Société anonyme dite:, priority 1981, dated 1983).

What was measured:
Format in all cases: in vivo
[1] = system: rats; experiment: Search for stereotyped movements; details: rat
Protocol: Des lots de 6 rats reçoivent une injection intrapéritonéale de CRL 40914 ou d'amphétamine puis sont immédiatement placés dans des boîtes de petites dimensions où leur comportement stéréotypé est coté de 0 à 3 toutes les 10 min jusqu'à extinction de l'effet.

[2] = system: rats; experiment: Interaction with apomorphine, rat; details: apomorphine 0,5 mg/kg s.c.
Protocol: Le CRL 40914 est administré aux rats une demi-heure avant l'injection sous-cutanée de 0,5 mg/kg d'apomorphine.
(§1) On a résumé ci-après les résultats des essais qui ont été entrepris chez l'animal avec le CRL 40915, les modalités opératoires étant celles données ci-dessus pour le CR L 40914.

[3] = system: souris; experiment: Interaction with reserpine; details: 4 mg/kg mais surtout 16 mg/kg et 64 mg/kg i.p., 4 h après réserpine 2,5 mg/kg i.p.
Protocol: Quatre heures après l'injection intrapéritonéale de 2,5 mg/kg de réserpine, des lots de 6 souris reçoivent le CRL 40914.
as §1

[4] = system: souris; experiment: Four plates test, traction and electroshock
Source text: Le test est pratiqué sur des lots de 10 souris, une demi-heure après l'administration de CRL 40914.
as §1

[5] = system: souris; experiment: Interaction with barbital; details: barbital sodique 220 mg/kg i.p.
Protocol: Des lots de 10 souris reçoivent le CRL 40914 une demi-heure avant l'injection intrapéritonéale de 220 mg/kg de barbital sodique.

[6] = system: souris; experiment: Interaction with yohimbine, spontaneous motility; details: yohimbine 0,5 mg/kg i.p.
Protocol: Des lots de 12 souris reçoivent la yohimbine (0,5 mg/kg i.p.) et le CRL 40914 respectivement 60 et 30 min avant d'être placées en actimètre où leur motilité est enregistrée pendant une demi-heure.

[7] = system: souris mâle; experiment: Action on intergroup aggressiveness
Protocol: Cet effet pourrait résulter de la sédation qui se manifeste à faible dose (4 mg/kg) et de l'excitation motrice qui se manifeste à forte dose (64 mg/kg).

CCN1CCOC(c2ccccc2)C1 (stereo not drawn) [CRL 40914, Chlorhydratede 2-phényl-4-éthyl-morpholine]
mouvements stéréotypés ([1]; 32 mg/kg i.p.): ne provoque pas de stéréotypies
mouvements stéréotypés ([1]; 64 mg/kg i.p.): mouvements stéréotypés d'intensité et de durée comparables à ceux observés après administration de 1 mg/kg d'amphétamine
mouvements stéréotypés ([1]; 128 mg/kg i.p.): cet effet est encore plus net
stéréotypies induites par l'apomorphine ([2]; rat, 0,5 mg/kg, 2 mg/kg et 8 mg/kg i.p.): semble diminuer modérément l'intensité des téréotypies induites par l'apomorphine
stéréotypies induites par l'apomorphine ([2]; rat, 32 mg/kg i.p.): potentialisation discrète des stéréotypies
hypothermie et ptosis réserpiniques [3]: s'oppose à l'hypothermie et au ptosis réserpinique
effets létaux de l'électrochoc ([4]; 64 mg/kg i.p.): aggrave les effets létaux de l'électrochoc
déficit moteur (traction) ([4]; i.p.): ne provoque pas de déficit moteur majeur
nombre de passages punis (test des quatre plaques) ([4]; i.p., faible dose / forte dose): à faible dose une diminution, et à forte dose une augmentation du nombre de passages punis
durée du sommeil induit par le barbital ([5]; 4 mg/kg et 16 mg/kg i.p.): semble prolonger modérément la durée du sommeil induit par le barbital
durée du sommeil induit par le barbital ([5]; 64 mg/kg i.p.): antagonisme net
hypomotilité produite par le CRL 40914 après yohimbine ([6]; CRL 40914 1 mg/kg): s'oppose à l'hypomotilité
hypomotilité produite par le CRL 40914 après yohimbine ([6]; CRL 40914 16 mg/kg): ne modifie pas celle provoquée par 16 mg/kg
combats (agressivité intergroupe) ([7]; 4 mg/kg): supprime les combats entre les souris de 2 groupes différents
durée de contact entre les souris (agressivité intergroupe) ([7]; 64 mg/kg): diminue la durée de contact entre les souris
